In patent US20240261225A1, “FORMIC ACID AS PROCESSING AID IN SPRAY DRYING FOR BASIC DRUGS” (Lonza Bend Inc., priority 2021, published 2024):
In brackets after ≈: the same amount, converted by molar mass.

What was measured:
[1] = physchem; details: 21 °C, organic solvent or mixture, thermodynamic from solid, Solubility with formic acid
Method: The solubility of gefitinib in solvent mixtures with 98% formic acid were obtained by suspending at RT 300 mg of crystalline gefitinib in 5 mL of solvent containing 100 microliters of formic acid at 21° C. (4.0 eq of formic acid). Both solutions were visually clear solutions at 60 mg/mL.
5 ml of a mixture of 4.9 ml of 90:10 methanol/water w/w with 0.1 ml HCOOH weigh 4.122 g based on the densities at RT as stated below.
5 ml of a mixture of 4.9 ml 80:20 methanol:water w/w with 0.1 ml HCOOH weigh 4.212 g based on the densities at RT as stated below.
The solution in the mixture of 4.9 ml of 90:10 MeOH:H2O w/w with 0.1 ml HCOOH was a visually clear solution at 72.8 mg/g based on the densities at RT as stated below.
The solution in the mixture of 4.9 ml of 80:20 MeOH:H2O w/w with 0.1 ml HCOOH was a visually clear solution at 71.2 mg/g based on the densities at RT as stated below.
[Solubility with formic acid]/[Solubility without formic acid]

[2] = Gefitinib solubility in methanol and methanol:water mixtures (saturated solutions, HPLC); format: physicochemical; details: 20° C.; for Solubility without formic acid: calculated based on densities at RT
Method: Crystalline gefitinib was added in excess to methanol and methanol:water mixtures to form saturated solutions at 20° C. After 24 hour of stirring, 1 mL aliquots were centrifuged at 10'000 RCF for 3 min. The supernatant was then analyzed for gefitinib concentration by HPLC.

[3] = physchem; details: 25 °C, organic solvent or mixture
[4] = according to go.drugbank.com; cited from earlier work
[5] = Nilotinib solubilities without and with formic acid; details: for Solubility with formic acid: 4.0 molar equivalents of formic acid

solubility [1] [µg/mL] | Solubility without formic acid ([2]; MeOH:H2O 80:20 (w/w)) [mg/g] | Solubility without formic acid ([2]; MeOH:H2O 90:10 (w/w)) [mg/g] | Solubility without formic acid ([2]; MeOH:H2O 100:0 (w/w)) [mg/g] | solubility at 24 h ([2]; methanol, organic solvent or mixture, thermodynamic from solid, MeOH:H2O 100:0 (w/w), read-out: Solubility without formic acid) [µg/mL] | solubility ([3]; methanol) [µg/mL] | solubility ([3]; methanol:water 90:10 (w/w)) [µg/mL] | Solubility with formic acid ([5]; MeOH:H2O 80:20 (w/w), 25° C.) [µg/mL] | Solubility without formic acid ([5]; MeOH:H2O 80:20 (w/w), 25° C.) [µg/mL] | Solubility with formic acid ([5]; MeOH:H2O 90:10 (w/w), 25° C.) [µg/mL] | Solubility with formic acid ([5]; MeOH:H2O 100:0 (w/w), 25° C.) [µg/mL] | effect of addition of formic acid on solubility over the solubility in MeOH ([5]; formic acid with and without the presence of water) | Structure (SMILES) | basic pKa [4]
≥ 60000 | 7.6 | 7.4 | 8.8 | 7000 (≈ 15.7 mM) | – | – | – | – | – | – | – | COc1cc2ncnc(Nc3ccc(F)c(Cl)c3)c2cc1OCCCN1CCOCC1 [gefitinib] | –
– | – | – | – | – | 2900 (≈ 5.48 mM) | 2000 (≈ 3.78 mM) | 8200 | 1000 (≈ 1.89 mM) | 8200 | 7900 | increase of solubility | Cc1cn(-c2cc(NC(=O)c3ccc(C)c(Nc4nccc(-c5cccnc5)n4)c3)cc(C(F)(F)F)c2)cn1 [nilotinib] | 5.92
